Test results as given in patent US9867798B2, “Ladostigil therapy for immunomodulation” (priority 2012, dated 2018).
Where “and” joins values, the source holds several entries; their conditions need not be identical. Equal entries are not always repeated.

What was measured:
MAO-A = molecular target: T1, MAO-A (Rattus norvegicus, UniProt P21396); test: MAO-A activity in heart of treated rats; type: in vivo; conditions: read-out: MAO-A activity in the heart inhibited
T1 construct: from tissue; host or cells: heart of aged Wistar rats after chronic oral dosing
T1 sequence (P21396 1-526): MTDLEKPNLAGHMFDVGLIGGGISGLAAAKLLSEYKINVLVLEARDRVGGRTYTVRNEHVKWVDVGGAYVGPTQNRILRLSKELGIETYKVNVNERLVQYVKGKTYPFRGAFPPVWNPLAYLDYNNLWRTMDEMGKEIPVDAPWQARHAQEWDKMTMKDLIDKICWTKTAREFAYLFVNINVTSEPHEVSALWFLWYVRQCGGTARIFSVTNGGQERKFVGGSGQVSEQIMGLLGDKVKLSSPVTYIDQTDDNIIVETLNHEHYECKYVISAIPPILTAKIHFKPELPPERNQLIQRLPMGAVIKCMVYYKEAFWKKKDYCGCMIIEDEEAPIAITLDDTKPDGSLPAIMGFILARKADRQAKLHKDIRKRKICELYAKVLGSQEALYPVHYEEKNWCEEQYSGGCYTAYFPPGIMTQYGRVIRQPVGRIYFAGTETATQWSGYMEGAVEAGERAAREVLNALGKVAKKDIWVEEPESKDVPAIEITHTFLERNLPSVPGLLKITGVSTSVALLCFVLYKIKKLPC

ChE = test: Cholinesterase inhibition in plasma and spleen of LPS injected mice (Example 5); type: in vivo, Balb-C mice; conditions: 120 min after oral administration; for Inhibition of ChE, plasma / Inhibition of ChE, spleen: LPS injected mice
Procedure: In experiments on the effect of chronic treatment with ladostigil on ChE activity in mice drinking DSS, the spleen was rapidly removed as described above, together with a colon segment of about 0.5 cm in length taken from the proximal area. Spleen and colon segments were washed in cold phosphate buffered saline (PBS) before they were frozen at −80° C. For assay, the tissue was unfrozen and weighed and PBS was added to each tissue at a ratio of 1 mg tissue to 1 ml. Tissues were homogenized at a speed of 24,000 rpm in cold phosphate buffer pH 7 containing 0.1% Triton and centrifuged at 14000 rpm. Aliquots of plasma and the supernatant from the spleen and colon were incubated with acetylthiocholine and dinitro benzoic acid in phosphate buffer pH 7 and the rate of development of the yellow color was measured as described by Ellman et al, (1961). Percent inhibition of ChE activity was calculated by comparison with that of control mice given water by gavage. Protein concentration was determined by means of by Pierce BCA Protein Assay Kit (Thermo Scientific, USA) according to the manufacturer's instructions. It is noted, that ChE activity in the colon and spleen of mice is attributed mainly to that of AChE while that in mouse plasma is mainly attributable to BuChE.
For the LPS experiment involving a single administration, ladostigil (10 or 20 mg/kg) in a volume of 1 ml/100 g or water (1 ml/100 g) were given by gavage to groups of 6-8 Balb-C male mice weighing 24-30 g and LPS as described above. […] Blood was taken into heparinized tubes and centrifuged at 14000 rpm at room temperature for 4 min to provide plasma and the spleen was rapidly removed, weighed, frozen in liquid nitrogen and stored at −80° C. until assayed. It is noted, that ChE inhibition in mouse plasma is mainly attributed to BuChE activity, and in mouse spleen—mainly to AChE activity.
Percent inhibition of ChE activity was calculated by comparison with that of control mice given water by gavage as described in Example 1 above.

[1] = system: Psammomys obesus gerbils on high-energy diet; test: Diabetes in gerbils on high-energy diet: glucose, insulin, pancreatic islets; type: in vivo; parameters: Change in glucose: unit: mg/dL
Procedure: Male Psammomys obesus gerbils aged 3.5-4 months were given a high-energy diet consisting of 938.5 g/Kg version of 2018SC+F Harlan Tekled Ltd., USA, supplemented with soybean oil to a final fat concentration of 6%. After one week on the diet, blood was taken for measurement of glucose and ChE activity. Half of the animals were given ladostigil (17 mg/kg/day) by gavage while the remainder received tap water by the same route. Blood was taken from the tail once weekly for measurement of glucose as described in Kalman R., et al, (2001). Lab Anim. 35:346-352. After three weeks of treatment the animals they were deeply anesthetized, blood was taken by cardiac puncture for measurement of ChE activity, glucose and insulin levels and the pancreas removed for section and staining with haematoxylin and eosin and the number of islets counted. Blood glucose of 11 animals had reached values exceeding 200 mg/dL after one week on the high energy diet and the average value for the whole group was 300±27 mg/dL. […] It is noted, that cholinesterase activity in plasma of Psammomys obesus is mostly mediated by butyrylcholinesterase (BuChE) rather than by AChE.

BuChE = BuChE (Homo sapiens, UniProt P06276); test: Relative potency in inhibiting BuChE and AChE
Chain of BuChE (P06276 29-602): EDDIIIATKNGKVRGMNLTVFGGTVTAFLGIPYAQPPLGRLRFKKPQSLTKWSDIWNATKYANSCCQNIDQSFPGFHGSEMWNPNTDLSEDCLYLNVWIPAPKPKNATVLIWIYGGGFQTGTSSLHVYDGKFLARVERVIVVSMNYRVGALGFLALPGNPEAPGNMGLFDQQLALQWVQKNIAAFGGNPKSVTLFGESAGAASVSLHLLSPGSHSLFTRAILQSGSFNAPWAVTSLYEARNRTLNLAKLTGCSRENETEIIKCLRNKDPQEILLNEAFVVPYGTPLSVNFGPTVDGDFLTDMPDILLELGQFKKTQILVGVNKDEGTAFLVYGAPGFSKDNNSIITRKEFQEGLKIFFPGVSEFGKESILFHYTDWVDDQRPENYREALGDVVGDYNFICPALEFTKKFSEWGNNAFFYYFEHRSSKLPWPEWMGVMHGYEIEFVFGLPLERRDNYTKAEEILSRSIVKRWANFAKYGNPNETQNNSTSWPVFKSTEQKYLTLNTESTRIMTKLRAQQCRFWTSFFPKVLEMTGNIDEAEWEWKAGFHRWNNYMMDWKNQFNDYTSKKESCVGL

[2] = system: LPS-induced TNF-α, IL-1β and IL-6 in spleen; test: Cytokines in spleen of mice injected with LPS, comparison to rivastigmine (Example 5); type: in vivo, Balb/c mice; conditions: for IL-1β in spleen / IL-6 in spleen / TNF-α in spleen: four hours
Procedure: Male Balb/c mice (aged 8-9 weeks, weighing 25-30 gm) were given ladostigil (10 or 20 mg/kg) or rivastigmine (0.5 or 1 mg/kg) by gavage, or water (1 ml/100 g), followed 15 min later by an intra-peritoneal injection of LPS (10 mg/kg). Control mice were given LPS and water by gavage (1 ml/100 g). For measurement of cytokine levels in the spleen and blood the mice were sacrificed 4 h after drug administration, blood collected in heparinized tubes and centrifuged to obtain plasma and the spleen was rapidly removed and weighed. Plasma and spleen were frozen in liquid nitrogen and stored at −80° C. until use. For measurement of cytokine levels, the tissue was diluted in PBS containing 0.8% NaCl, 0.144% NaHPO4, 0.024% KH2PO4 and protease inhibitor cocktail (Sigma Israel, P8340) and homogenized in an Ultra-TURRAX® homogenizer at a speed of 24,000 rpm, centrifuged at 14000 g for 15 min at 4° C. Cytokines were detected in the supernatant by using ELISA kits for cytokines IL-1β, IL-6, and TNF-α (Biolegend) following the manufacturer's protocol. Each experiment was performed twice with 8 replicate measures in each experiment. Protein concentration in each sample was determined with Bradford reagent (Bio-RAD, 500-0006).

[3] = ladostigil 10 mg/kg + LPS 10 mg/kg
[4] = ladostigil 20 mg/kg + LPS 10 mg/kg

## C#CCN[C@@H]1CCc2ccc(OC(=O)N(C)CC)cc21 [Ladostigil, R(+)-6-(N-methyl, N-ethyl-carbamoyloxy)-N′-propargyl-1-aminoindan]
MAO-A
  inhibition at 8.5 mg/kg/day: 50 to 60%
ChE; ladostigil 10 mg/kg
  Inhibition of ChE activity in plasma or spleen: did not significantly inhibit ChE activity
  Inhibition of ChE, plasma: 7.8 ± 2.4%
  Inhibition of ChE, spleen: 15.1 ± 3.6%
ChE; ladostigil 20 mg/kg
  Inhibition of ChE, plasma: 27.4±5.9%
  Inhibition of ChE, spleen: 28.1 ± 1.9 %
[1]; 17 mg/kg/day, three weeks
  Blood glucose levels: decrease in blood glucose levels in all six animals
[1]; individual gerbils, 17 mg/kg/day
  Insulin after 3 weeks of treatment: 132 mU/L and 126.6 mU/L and 124.6 mU/L and 85.3 mU/L and 172 mU/L and 135.3 mU/L
[1]; individual gerbils, 17 mg/kg/day by gavage, 17 mg/kg/day
  Glucose after 3 weeks of treatment: 284 mg/dL and 250 mg/dL and 180 mg/dL and 311 mg/dL and 222 mg/dL and 266 mg/dL
[1]; individual gerbils, 17 mg/kg/day, after 3 weeks vs before, 17 mg/kg/day
  Change in glucose: −136 and −23 and −20 and −41 and −65 and −19
[1]; individual gerbils, 17 mg/kg/day, after 3 weeks, 17 mg/kg/day
  No of islets: 42 and 117 and 79 (2×) and 99 and 87
[1]; individual gerbils, baseline after one week of high energy diet, group later given 17 mg/kg, 17 mg/kg
  Glucose before treatment: 420 mg/dL and 273 mg/dL and 200 mg/dL and 352 mg/dL and 287 mg/dL and 285 mg/dL
BuChE
  Potency in inhibiting BuChE relative to AChE: at least ten times more potent in inhibiting BuChE than in inhibiting AChE
[2]; ladostigil 10 mg/kg + LPS
  Reduction of IL-1β levels in spleen: 31.1±4.3%
  Reduction of IL-6 levels in spleen: 50.0±7.2%
  Reduction of TNF-α levels in spleen: 49.7±7.6%
[2]; [3]
  IL-1β in spleen: 401 ± 40 pg/mg
  IL-6 in spleen: 351 ± 50 pg/mg
  TNF-α in spleen: 9.6 ± 1.5 pg/mg
[2]; ladostigil 20 mg/kg + LPS
  Effect on TNF-α or IL-1β levels in spleen: had no effect
  Reduction of IL-6 levels in spleen: 42.7±8.3%
[2]; [4]
  IL-1β in spleen: 591 ± 17 pg/mg
  IL-6 in spleen: 454 ± 59 pg/mg
  TNF-α in spleen: 17.1 ± 1.9 pg/mg
